Results on 10 molecules are retold here after patent publication US9296723B2, “NAMPT inhibitors” (AbbVie Inc., priority 2012, dated 2016).

Each structure is given as a SMILES string. pIC50: −log10 of the molar value.

Assay [1] has as its target NAMPT (Homo sapiens, UniProt P43490). Put plainly: Time-Resolved Fluorescence Resonance Energy Transfer (TR-FRET) Binding Assay of NAMPT. The following applies: 6.8 nM NAMPT, 200 nM probe, equilibrated 3 hours, no substrates. An outline of the steps:
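IC50s come from four-parameter logistic fits of control-normalized Em520/Em495 TR-FRET ratios (Ex 337 nm) against compound concentration. Before reading, enzyme, probe, antibody and compound equilibrated for 3 h at room temperature.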

Assay [2] has as its system PC3 cells. Put plainly: NAMPT Cell Proliferation Assay (Cell Titer Glo). The following applies: Homo sapiens, PC-3, 120 h, incubated 5 days, cell viability. The assay is classed as cell-based. An outline of the steps: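 Viability measured by Cell Titer Glo luminescence after 5-day exposure of attached PC3 cells to compound, dosed as 10-fold serial dilutions ([…]) in RPMI/10% FBS at 37 °C and 5% CO2. Percent inhibition fitted to sigmoidal dose-response curves for IC50.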

NAMPT, sequence (P43490 whole entry): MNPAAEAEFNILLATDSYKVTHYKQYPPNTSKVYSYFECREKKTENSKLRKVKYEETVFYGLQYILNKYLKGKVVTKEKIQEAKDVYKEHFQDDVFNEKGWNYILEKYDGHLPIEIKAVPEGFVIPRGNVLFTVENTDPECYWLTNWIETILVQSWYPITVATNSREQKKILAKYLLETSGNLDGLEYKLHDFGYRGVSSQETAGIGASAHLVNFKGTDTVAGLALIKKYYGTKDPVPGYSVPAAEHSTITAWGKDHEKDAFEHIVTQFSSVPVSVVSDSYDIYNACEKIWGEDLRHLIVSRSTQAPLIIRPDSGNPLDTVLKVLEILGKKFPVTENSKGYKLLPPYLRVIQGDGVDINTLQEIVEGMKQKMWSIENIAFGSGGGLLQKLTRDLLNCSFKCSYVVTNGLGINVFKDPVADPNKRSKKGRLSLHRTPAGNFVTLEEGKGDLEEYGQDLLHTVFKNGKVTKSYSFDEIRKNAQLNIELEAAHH

Regarding `COCCOCC(=O)N1CCC(c2ccc(NC(=O)N3CC(c4cccnc4)C3)cc2)C1` (centres unmarked) [Example 280, N-(4-{1-[(2-methoxyethoxy)acetyl]pyrrolidin-3-yl}phenyl)-3-(pyridin-3-yl)azetidine-1-carboxamide], the results for the pIC50 in assay [1] and in assay [2] were 7.00 and 6.94, respectively.
The matching figures for `O=C(CCN1CCOCC1)N1CCC(c2ccc(NC(=O)N3CC(c4cccnc4)C3)cc2)C1` (centres unmarked) [Example 281, N-(4-{1-[3-(morpholin-4-yl)propanoyl]pyrrolidin-3-yl}phenyl)-3-(pyridin-3-yl)azetidine-1-carboxamide]: 7.18 and 6.90.
With `Cn1cccc1C(=O)N1CCC(c2ccc(NC(=O)N3CC(c4cccnc4)C3)cc2)C1` (centres unmarked) [Example 285, N-(4-{1-[(1-methyl-1H-pyrrol-2-yl)carbonyl]pyrrolidin-3-yl}phenyl)-3-(pyridin-3-yl)azetidine-1-carboxamide], the figures for the pIC50 in assay [1] and in assay [2] were 7.76 and 7.58, respectively.
On to `O=C(Nc1ccc(C2CCN(C(=O)c3ccco3)C2)cc1)N1CC(c2cccnc2)C1` (centres unmarked) [Example 286, N-{4-[1-(furan-2-ylcarbonyl)pyrrolidin-3-yl]phenyl}-3-(pyridin-3-yl)azetidine-1-carboxamide], for which the values for the pIC50 in assay [1] and in assay [2] were 8.01 and 8.12, respectively.
The matching figures for `CCC(C)CC(=O)N1CC[C@@H](Oc2ccc(NC(=O)N3CC(c4cccnc4)C3)cc2)C1` (stereo partly drawn) [Example 298, N-(4-{[(3R)-1-(3-methylpentanoyl)pyrrolidin-3-yl]oxy}phenyl)-3-(pyridin-3-yl)azetidine-1-carboxamide]: 7.45 and 7.95.
The matching figures for `CN(C)CCC(=O)N1CC[C@@H](Oc2ccc(NC(=O)N3CC(c4cccnc4)C3)cc2)C1` [Example 306, N-(4-{[(3R)-1-(N,N-dimethyl-beta-alanyl)pyrrolidin-3-yl]oxy}phenyl)-3-(pyridin-3-yl)azetidine-1-carboxamide]: 6.29 and 6.53.
`CC(C)CCC(=O)N1CC[C@@H](Oc2ccc(NC(=O)N3CC(c4cccnc4)C3)cc2)C1` [Example 315, N-(4-{[(3R)-1-(4-methylpentanoyl)pyrrolidin-3-yl]oxy}phenyl)-3-(pyridin-3-yl)azetidine-1-carboxamide]: the pIC50 in assay [1] was 7.31; in assay [2], 7.27.
The matching figures for `CC1(C(=O)N2CC[C@@H](Oc3ccc(NC(=O)N4CC(c5cccnc5)C4)cc3)C2)CCCCC1` [Example 316, N-[4-({(3R)-1-[(1-methylcyclohexyl)carbonyl]pyrrolidin-3-yl}oxy)phenyl]-3-(pyridin-3-yl)azetidine-1-carboxamide]: 7.87 and 7.76.
For the molecule `CC(C)(C)C(=O)N1CC[C@@H](Oc2ccc(NC(=O)N3CC(c4cccnc4)C3)cc2)C1` [Example 322, N-(4-{[(3R)-1-(2,2-dimethylpropanoyl)pyrrolidin-3-yl]oxy}phenyl)-3-(pyridin-3-yl)azetidine-1-carboxamide], the pIC50 is 7.46 in assay [1] and 7.90 in assay [2].
The matching figures for `O=C(CCN1CCCCC1)N1CC[C@@H](Oc2ccc(NC(=O)N3CC(c4cccnc4)C3)cc2)C1` [Example 327, N-[4-({(3R)-1-[3-(piperidin-1-yl)propanoyl]pyrrolidin-3-yl}oxy)phenyl]-3-(pyridin-3-yl)azetidine-1-carboxamide]: 6.35 and 6.72.
